Test results from the supplement of paper PMC5844555.

Experiments:
Assay in all cases: 3' UTR reporter interaction score (median-centred robust z-score of log2 firefly/Renilla activity); higher = less repression of the 3' UTR reporter
Details in all cases: HEK293T; 48 h
[1] = test system: PHOX2B
Outline: (§1)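 For the interaction score, the firefly/Renilla ratio was log-transformed, expressed as a robust z-score per plate using median and median absolute deviation, and median-centred per miRNA; a more negative score indicates interaction. These scores come from at least two independent screens, averaged. Each screen used HEK293T cells at 10,000/well in 96-well plates, co-transfected with DharmaFECT Duo carrying 100 ng luc2P 3' UTR reporter, 20 ng pRL-TK and 2.5 pmol miRNA mimic, with luciferase read at 48 h.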

[2] = test system: NOTCH1
Outline: as §1

[3] = test system: FBXW7
Outline: as §1

[4] = test system: ZEB2
Outline: as §1

[5] = test system: MYCN
Outline: as §1

[6] = test system: MYC
Outline: as §1

[7] = test system: MYB
Outline: as §1

[8] = test system: HRAS
Outline: as §1

[9] = test system: BRCA2
Outline: as §1

[10] = test system: PHF6
Outline: as §1

[11] = test system: RB1
Outline: as §1

[12] = test system: TP53
Outline: as §1

[13] = test system: MYT1L
Outline: as §1

[14] = test system: EZH2
Outline: as §1

Sequence	3' UTR reporter interaction score [1]	3' UTR reporter interaction score [2]	3' UTR reporter interaction score [3]	3' UTR reporter interaction score [4]	3' UTR reporter interaction score [5]	3' UTR reporter interaction score [6]	3' UTR reporter interaction score [7]	3' UTR reporter interaction score [8]	3' UTR reporter interaction score [9]	3' UTR reporter interaction score [10]	3' UTR reporter interaction score [11]	3' UTR reporter interaction score [12]	3' UTR reporter interaction score [13]	3' UTR reporter interaction score [14]
UCAAGAGCAAUAACGAAAAAUGU	-0.662	0.351	0.698	0.703	-0.782	-0.189	-0.127	-0.0915	0.701	0.162	-2.16	0.338	-2.38	-0.0128
UCACAAUGCUGACACUCAAACUGCUGAC	0.242	-0.0831	0.257	-1.11	-0.126	0.447	-0.419	-0.335	-3.53	0.399	-0.143	-0.424	0.647	0.195
UCACAGUGAACCGGUCUCUUUC	0.244	-0.749	-1.67	-2.39	0.302	0.45	-1.23	-0.688	0.111	-3.58	-0.537	0.241	0.655	0.78
UCACAGUGAACCGGUCUCUUUU	-1.31	-0.144	-1.07	-4.74	1.36	-0.0365	0.662	-2.6	-0.31	1.79	1.15	0.412	-2.56	0.47
UCAGAACAAAUGCCGGUUCCCAGA	-0.368	-0.509	0.465	0.0144	0.0784	0.178	0.483	1.03	-0.146	0.882	-0.316	-1.5	-0.318	0.61
UCAGGCUCAGUCCCCUCCCGAU	0.106	-0.181	0.573	1.33	-0.567	0.0353	-1.88	-0.122	0.841	0.0613	0.0824	0.0121	-0.304	0.0569
UCAGUCUCAUCUGCAAAGAAG	0.237	-1.13	0.372	-0.368	1.11	0.794	-0.485	1.08	-0.924	-0.895	0.581	-0.202	-1.02	1.71
UCAGUGCACUACAGAACUUUGU	-0.0276	0.169	0.473	1.75	0.963	0.0974	-1.33	-0.763	-1.23	0.792	1.18	-0.523	1.34	-0.364
UCAGUGCAUCACAGAACUUUGU	-0.909	0.0134	0.15	1.9	0.974	0.216	-1.04	-0.998	-1.11	0.428	1.28	-0.15	1.61	-0.211
UCAGUGCAUGACAGAACUUGGG	-1.31	0.274	0.501	1.1	0.0157	0.213	-1.5	-1.05	-0.0322	1.76	-2.16	-0.341	0.827	0.0466
UCCAGCAUCAGUGAUUUUGUUGA	1.43	-0.191	-0.0681	0.915	-0.105	-0.461	0.387	-0.335	0.64	0.0153	-0.243	-0.53	-0.429	0.0592
UCCAGCUCCUAUAUGAUGCCUUU	-0.208	-1.09	0.91	-2.75	-0.396	0.624	0.963	-0.216	0.152	-0.704	-0.767	0.0762	-1.49	0.255
UCCAGUACCACGUGUCAGGGCCA	0.294	0.223	-1.35	0.742	-3.01	-0.893	0.593	0.159	0.581	-0.805	0.837	-0.171	0.747	-1.44
UCCCACGUUGUGGCCCAGCAG	-0.461	0.591	-0.0713	-0.736	-0.504	0.28	-0.00342	-0.421	0.793	0.0798	-2.41	0.863	-0.668	0.303
UCCCUGAGACCCUAACUUGUGA	-1.65	-0.154	-0.252	1.05	0.264	1.24	-0.19	1.12	1.7	0.386	-0.398	-1.15	0.796	0.82
UCCCUGAGACCCUUUAACCUGUG	-2.78	-0.719	-0.449	0.152	-0.334	0.131	-0.228	1.12	0.772	1.62	0.0838	-3.91	0.364	1.1
UCCCUGUCCUCCAGGAGCUCA	-1.29	-0.622	0.105	-0.151	0.194	0.568	0.312	0.998	-0.604	-1.54	-0.85	0.159	-0.918	0.643
UCCGAGCCUGGGUCUCCCUCU	1.22	0.141	0.832	-0.318	-0.731	-0.43	-0.402	-0.0807	0.0314	-0.194	0.559	0.107	1.66	0.213
UCCGUCUCAGUUACUUUAUAGCC	-0.906	-0.0124	-1.56	-2.24	-0.29	0.0204	-1.75	-0.357	1.46	2.5	0.307	1.13	-0.738	0.571
